Results: patent publication US8518953B2, “Aminopyrimidines useful as inhibitors of protein kinases” (Vertex Pharmaceuticals Incorporated, priority 2007, dated 2013)

What was measured:
[1] = system: rat brains after transient middle cerebral artery occlusion; details: rat brains after transient MCAO; cited from earlier work
[2] = system: β-catenin dependent TCF/LEF transcriptional activity; assay: β-Catenin Stabilization Protocol (β-lactamase reporter assay in Jurkat cells); assay type: cell-based; details: Homo sapiens, 460/530 ratio, read-out: Beta Catenin IC50
From the text: GSK-3 phosphorylation of β-catenin targets it to the proteosome for degradation. Inhibition of GSK-3 results in accumulation of β-catenin in the cytosol of cells which through interaction with the transcription factor TCF/LEF translocates to the nucleus and drives the transcription of Wnt-dependent genes. The assay is designed to determine the level of β-catenin dependent TCF/LEF transcriptional activity in a quantitative manner through the use of a β-lactamase reporter assay in Jurkat cells dosed with a compound.
Jurkat β-catenin cells are starved overnight in assay media (1% FBS, 1× Penstrep, RPMI) in the flask. The next day Jurkat β-catenin cells are seeded in 96 well flat bottom plates at a density of 50,000 cells/well in assay media in a volume of 100 ul. The compound is added to the well at a final DMSO concentration of 0.75% and incubated at 37° C. o/n. The next day, 20 uL of 6×CCF4 dye is added to the wells and incubated at room temperature for 1-2 hours. Plates are read on the Cytofluor 4000 series multiwell plate reader and the 460/530 ratio is determined.

GSK-3β (AA 1-420) = target: T1, GSK-3β (AA 1-420) (Homo sapiens, UniProt P49841); assay: GSK-3 Inhibition Assay (standard coupled enzyme system); assay type: biochemical; details: 20 μM ATP, 300 μM peptide, 20 nM GSK-3β, 30° C.
T1 construct: GSK-3β (AA 1-420)
T1 sequence (P49841 whole entry, species assumed, the tested form may be a part): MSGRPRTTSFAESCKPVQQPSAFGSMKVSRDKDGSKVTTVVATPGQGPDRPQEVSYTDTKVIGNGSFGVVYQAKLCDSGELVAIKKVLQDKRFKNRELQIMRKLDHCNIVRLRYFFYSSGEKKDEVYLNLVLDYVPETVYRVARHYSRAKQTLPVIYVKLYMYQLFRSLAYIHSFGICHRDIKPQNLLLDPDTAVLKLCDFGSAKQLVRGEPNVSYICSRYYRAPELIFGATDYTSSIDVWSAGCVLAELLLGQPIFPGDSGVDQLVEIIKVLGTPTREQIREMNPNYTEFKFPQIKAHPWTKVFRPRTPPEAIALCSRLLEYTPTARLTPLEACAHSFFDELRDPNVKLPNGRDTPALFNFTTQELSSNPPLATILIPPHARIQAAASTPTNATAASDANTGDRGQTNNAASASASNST
Description: Compounds of the present invention were screened for their ability to inhibit GSK-3β (AA 1-420) activity using a standard coupled enzyme system (Fox et al., Protein Sci. 1998, 7, 2249). Reactions were carried out in a solution containing 100 mM HEPES (pH 7.5), 10 mM MgCl2, 25 mM NaCl, 300 μM NADH, 1 mM DTT and 1.5% DMSO. Final substrate concentrations in the assay were 20 μM ATP (Sigma Chemicals, St Louis, Mo.) and 300 μM peptide (American Peptide, Sunnyvale, Calif.). Reactions were carried out at 30° C. and 20 nM GSK-3β. Final concentrations of the components of the coupled enzyme system were 2.5 mM phosphoenolpyruvate, 300 μM NADH, 30 μg/ml pyruvate kinase and 10 μg/ml lactate dehydrogenase.
An assay stock buffer solution was prepared containing all of the reagents listed above with the exception of ATP and the test compound of the present invention. The assay stock buffer solution (175 μl) was incubated in a 96 well plate with 5 μl of the test compound of the present invention at final concentrations spanning 0.002 μM to 30 μM at 30° C. for 10 min. […] Rates of reaction were obtained using a Molecular Devices Spectramax plate reader (Sunnyvale, Calif.) over 10 min at 30° C. The Ki values were determined from the rate data as a function of inhibitor concentration.

GSK3β TYR 216 = target: T2, GSK3β TYR 216 (Homo sapiens, UniProt P49841); assay: GSK3β p-TYR Inhibition Assay (western blotting of Jurkat cells); assay type: cell-based; details: western blot, read-out: GSK3b pTYR 216: IC50
T2 construct: western blotting of Jurkat cells dosed with the compounds; endogenous in cells; host or cells: Jurkat cells
T2 sequence (P49841 whole entry): as the sequence (P49841 whole entry, species assumed, the tested form may be a part) above
Description: (§1) Compounds are screened for their ability to inhibit the phosphorylation of tyrosine (TYR) residues through the use of western blotting of Jurkat cells dosed with the compounds. The phosphorylation of the specific TYR residues tested are GSK3α TYR 279 and GSK3β TYR 216.
(§2) Jurkat cells are seeded at a density of 2×10^5 cells/well in a 12 well dish in starvation media (RPMI+1% FBS+P/S). Following starvation for 16 hours, the compound is dosed into each well at a final DMSO concentration of 0.3% and cells are incubated o/n at 37° C. 5% CO2. The next day, cells are spun down at 1500 rpm, washed with PBS, and lysed in 100 uL Laemli sample buffer with β-mercaptoethanol.
(§3) 15 microliters (uL) of cell lysates are loaded onto a 10% tris-glycine gel and run at 120 v for 2 hours or until dye front runs off of the gel. The protein is then transferred onto a PVDF membrane at 100 v for 60 min. PBST (PBS containing 0.1% Tween 20, such as 1 ml Tween per 1 L of PBS) is then made up and used for all washes and antibody incubations. The blot is blocked in 5% nonfat milk PBST for one hour.
(§4) The primary antibody (GSK-3α/β pTYR 279/216 at 1:1000 dilution Upstate cat#05-413) is then added in […] PBST overnight at 4° C. with gentle rocking. The blot is then washed in PBST for 5 min. This is then repeated 4 times. […]

GSK3α TYR 279 = target: T3, GSK3α TYR 279 (Homo sapiens, UniProt P49840); assay: GSK-3α p-TYR Inhibition Assay (western blotting of Jurkat cells); assay type: cell-based; details: western blot, read-out: GSK3a pTYR 279: IC50
T3 construct: western blotting of Jurkat cells dosed with the compounds; endogenous in cells; host or cells: Jurkat cells
T3 sequence (P49840 whole entry): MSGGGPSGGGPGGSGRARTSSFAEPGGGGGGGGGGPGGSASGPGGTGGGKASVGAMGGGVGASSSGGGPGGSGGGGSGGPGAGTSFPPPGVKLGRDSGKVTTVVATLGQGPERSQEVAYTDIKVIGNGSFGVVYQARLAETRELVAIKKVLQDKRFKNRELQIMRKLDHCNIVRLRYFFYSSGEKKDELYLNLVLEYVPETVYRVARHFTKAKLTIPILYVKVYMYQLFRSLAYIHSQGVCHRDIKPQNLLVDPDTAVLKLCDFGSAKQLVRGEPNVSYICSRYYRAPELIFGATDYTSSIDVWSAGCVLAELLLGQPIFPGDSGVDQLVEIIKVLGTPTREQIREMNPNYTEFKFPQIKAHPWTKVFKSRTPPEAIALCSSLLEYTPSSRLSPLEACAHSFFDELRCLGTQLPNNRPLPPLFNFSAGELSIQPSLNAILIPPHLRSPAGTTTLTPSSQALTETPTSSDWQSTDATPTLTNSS
Description: as §1, §2, §3, §4

Molecule	infarct size [1]	IC50 [2]	Ki (GSK-3β (AA 1-420))	IC50 (GSK3β TYR 216)	IC50 (GSK3α TYR 279)
IGF-1: insulin growth factor-1, a known GSK-3 inhibitor	reduced infarct size	–	–	–	–
CCc1c(C)nc(-c2ccccc2Cl)nc1Nc1n[nH]c2ncc(F)cc12 [Compound I-2]	–	0.94 µM	< 0.005 µM	0.03 µM	0.002 µM
